Laboratory results reported in patent US20250099466A1 (BRISTOL-MYERS SQUIBB COMPANY, priority 2021, published 2025).
Entries after “also recorded” stand apart in the source; their conditions may differ.

Columns and labels:
[1] = test system: electrically induced carotid artery thrombus (ECAT) in rabbits; assay: Prevention rabbit model of electrically induced carotid artery thrombus (ECAT); format: in vivo
Experimental: (§1) The rabbit ECAT model as described by Wong et al., Nonpeptide factor Xa inhibitors: II.
(§2) Male New Zealand white rabbits were anesthetized with ketamine (50 mg/kg+50 mg/kg/h intramuscularly) and xylazine (10 mg/kg+10 mg/kg/h intramuscularly). Thrombosis was induced by electrical stimulation of the control carotid artery for 3 minutes at 4 mA using an external stainless-steel bipolar electrode. Carotid blood flow was measured with an electromagnetic flow probe continuously over a 90-minute period to monitor thrombosis induced occlusion. Integrated carotid blood flow was measured by the area under the flowtime curve (see Wong et al.). In addition, thrombus from the injured artery was removed, blotted twice on a weighing paper to remove residual fluid, and weighed.
(§3) To achieve a stable plasma level with minimum experimental variability, compounds were administered by IV infusion. […] The IV infusion was continued throughout the experiment for both models.
(§4) Integrated blood flow, thrombus weight, aPTT (activated partial thromboplastin time), TT (thrombin time), and PT (prothrombin time) were also measured.

[2] = test system: electrically induced carotid artery thrombus (ECAT) in rabbits; assay: Treatment rabbit ECAT model (dosing 15 minutes after vessel injury); format: in vivo; settings: for carotid blood flow at 90 minutes (% of control carotid blood flow): n=6; for reduction in thrombus weight: treatment ECAT
Experimental: as §1, §2, §3, §4

[3] = test system: subjects undergoing elective total knee replacement surgery; assay: Phase 2 study after elective total knee replacement: bleeding events (safety); format: in vivo, human; settings: safety set, on-treatment
Text: The principal safety outcome was any bleeding, which was defined as the composite of major, clinically relevant nonmajor, and minimal bleeding. Secondary safety outcomes were: (a) major bleeding, (b) clinically relevant nonmajor bleeding, (c) clinically relevant bleeding, defined as the composite of major and clinically relevant nonmajor bleeding, and (d) minimal bleeding. Bleeding was classified as major if it was overt and associated with a decrease in hemoglobin of 2 g/dL or more or necessitated transfusion of 2 or more units of blood with a temporal association within 24 to 48 hours of the bleed; or if it occurred in a critical area or organ or contributed to death. […] Overt bleeding not meeting the criteria for major bleeding, but that necessitated medical examination or intervention or had clinical consequences, was classified as clinically relevant nonmajor bleeding. Bleeding not meeting the criteria for major or clinically relevant nonmajor bleeding was classified as minimal bleeding (Schulman et al., Definition of major bleeding in clinical investigations of antihemostatic medicinal products in surgical patients. J Thromb Haemost 2010; 8:202-4).
Analysis of safety outcomes was performed in the safety population, which included all randomized patients who received at least one dose of study medication; the time for analysis included the on-treatment period plus 2 days. For each bleeding outcome, the rate in each milvexian group was compared with that in the enoxaparin group with the same methods used for evaluation of the secondary efficacy outcomes. The Kaplan-Meier method was used to assess the time to the first occurrence of any bleeding with milvexian or enoxaparin.
The key secondary objective of the study was to assess the dose-response trend of milvexian for the occurrence of Any Bleeding events during the treatment period. Any Bleeding was defined as the composite of major bleeding according to the International Society on Thrombosis and Haemostasis (ISTH) criteria modified for the surgical setting, clinically relevant nonmajor bleeding events or minimal bleeding events as assessed by the clinical events committee (CEC).

[4] = test system: aPTT; assay: aPTT prolongation in healthy volunteers; format: in vivo, human; settings: 50-mg once daily dose, for about 24 hours
[5] = milvexian 50 mg BID, listed as Milvexian
[6] = milvexian 100 mg BID, listed as Milvexian
[7] = milvexian 200 mg once daily, listed as Milvexian
[8] = milvexian all regimens combined
[9] = milvexian combined BID regimens

Compound: C[C@@H]1CCC[C@H](n2cnc(-c3cc(Cl)ccc3-n3cc(Cl)nn3)cc2=O)c2cc(ccn2)-c2c(cnn2C(F)F)NC1=O [milvexian, (5R,9S)-9-(4-(5-chloro-2-(4-chloro-1H-1,2,3-triazol-1-yl)phenyl)-6-oxopyrimidin-1(6H)-yl)-21-(difluoromethyl)-5-methyl-21H-3-aza-1(4,2)-pyridina-2(5,4)-pyrazolacyclononaphan-4-one]
- thrombus weight reduction ([1]; highest dose (1+0.67 mg/kg+mg/kg/h IV), prevention ECAT): 70±2%
- integrated blood flow, % of the control level ([1]; highest dose (1+0.67 mg/kg+mg/kg/h IV), prevention ECAT, n=6): 76±5%
- duration of the patency of the carotid artery ([1]; prevention ECAT, 0.063+0.04, 0.25+0.17, 1+0.67 mg/kg+mg/kg/h IV): dose-dependent increase in duration of the patency of the carotid artery
- bleeding time ([1]; rabbit): without a significant increase in bleeding time
- antithrombotic 20% maximal effective concentration (EC20) ([1]; total plasma concentration, thrombus weight reduction, prevention ECAT): 55 nM
- carotid blood flow at 90 minutes (% of control carotid blood flow) ([2]; 0.25+0.17 mg/kg+mg/kg/h IV at 15 minutes after initiation of thrombosis): 39±10%
- reduction in thrombus weight ([2]; 0.25+0.17 mg/kg+mg/kg/h IV): 25±7%
- carotid blood flow at 90 minutes (% of control carotid blood flow) ([2]; 1+0.67 mg/kg+mg/kg/h IV at 15 minutes after initiation of thrombosis): 66±2%
- reduction in thrombus weight ([2]; 1+0.67 mg/kg+mg/kg/h IV): 61±6%
- Any Bleeding % ([3]; milvexian 25 mg BID): 1.4%
- Any Bleeding RR vs Enox ([3]; milvexian 25 mg BID): 0.33
- Any Bleeding n ([3]; milvexian 25 mg BID): 2 n
- Major+CRNM bleeding % ([3]; milvexian 25 mg BID): 0%
- Major+CRNM bleeding n ([3]; milvexian 25 mg BID): 0 n
- Minimal Bleeding % ([3]; milvexian 25 mg BID): (1.4%)
- Minimal Bleeding RR vs Enox ([3]; milvexian 25 mg BID): 0.50
- Minimal Bleeding n ([3]; milvexian 25 mg BID): 2 n
- Any Bleeding % ([3]; milvexian 25 mg BID, listed as Milvexian): (1.4%)
- Any Bleeding % ([3]; milvexian 25 mg once daily): 0%
- Any Bleeding n ([3]; milvexian 25 mg once daily): 0 n
- Major+CRNM bleeding n ([3]; milvexian 25 mg once daily): 0 n
- Minimal Bleeding n ([3]; milvexian 25 mg once daily): 0 n
- Any Bleeding % ([3]; milvexian 50 mg BID): 4.7%
- Any Bleeding RR vs Enox ([3]; milvexian 50 mg BID): 1.15
- Any Bleeding n ([3]; milvexian 50 mg BID): 7 n
- Major+CRNM bleeding % ([3]; milvexian 50 mg BID): 1.4%
- Major+CRNM bleeding RR vs Enox ([3]; milvexian 50 mg BID): 0.79
- Major+CRNM bleeding n ([3]; milvexian 50 mg BID): 2 n
- Minimal Bleeding % ([3]; milvexian 50 mg BID): (3.4%)
- Minimal Bleeding RR vs Enox ([3]; milvexian 50 mg BID): 1.23
- Minimal Bleeding n ([3]; milvexian 50 mg BID): 5 n
- Any Bleeding % [3, 5]: (4.7%)
- Major+CRNM bleeding % [3, 5]: (1.4%)
- Any Bleeding % ([3]; milvexian 50 mg once daily): (5.3%)
- Any Bleeding RR vs Enox ([3]; milvexian 50 mg once daily): 1.17
- Any Bleeding n ([3]; milvexian 50 mg once daily): 8 n
- Major+CRNM bleeding % ([3]; milvexian 50 mg once daily): 1.3%
- Major+CRNM bleeding RR vs Enox ([3]; milvexian 50 mg once daily): 0.68
- Major+CRNM bleeding n ([3]; milvexian 50 mg once daily): 2 n
- Minimal Bleeding % ([3]; milvexian 50 mg once daily): (4.0%)
- Minimal Bleeding RR vs Enox ([3]; milvexian 50 mg once daily): 1.35
- Minimal Bleeding n ([3]; milvexian 50 mg once daily): 6 n
- Major+CRNM bleeding % ([3]; milvexian 50 mg once daily, listed as Milvexian): (1.3%)
- Any Bleeding % ([3]; milvexian 100 mg BID): 4.7%
- Any Bleeding RR vs Enox ([3]; milvexian 100 mg BID): 1.14
- Any Bleeding n ([3]; milvexian 100 mg BID): 7 n
- Major+CRNM bleeding % ([3]; milvexian 100 mg BID): 0.7%
- Major+CRNM bleeding RR vs Enox ([3]; milvexian 100 mg BID): 0.39
- Major+CRNM bleeding n ([3]; milvexian 100 mg BID): 1 n
- Minimal Bleeding % ([3]; milvexian 100 mg BID): (4.7%)
- Minimal Bleeding RR vs Enox ([3]; milvexian 100 mg BID): 1.71
- Minimal Bleeding n ([3]; milvexian 100 mg BID): 7 n
- Any Bleeding % [3, 6]: (4.7%)
- Major+CRNM bleeding % [3, 6]: (0.7%)
- Any Bleeding % ([3]; milvexian 200 mg BID): (3.4%)
- Any Bleeding RR vs Enox ([3]; milvexian 200 mg BID): 0.81
- Any Bleeding n ([3]; milvexian 200 mg BID): 5 n
- Major+CRNM bleeding % ([3]; milvexian 200 mg BID): 0.7%
- Major+CRNM bleeding RR vs Enox ([3]; milvexian 200 mg BID): 0.39
- Major+CRNM bleeding n ([3]; milvexian 200 mg BID): 1 n
- Minimal Bleeding % ([3]; milvexian 200 mg BID): (2.7%)
- Minimal Bleeding RR vs Enox ([3]; milvexian 200 mg BID): 0.96
- Minimal Bleeding n ([3]; milvexian 200 mg BID): 4 n
- Major+CRNM bleeding % ([3]; milvexian 200 mg BID, listed as Milvexian): (0.7%)
- Any Bleeding % ([3]; milvexian 200 mg once daily): 6.1%
- Any Bleeding RR vs Enox ([3]; milvexian 200 mg once daily): 1.51
- Any Bleeding n ([3]; milvexian 200 mg once daily): 9 n
- Major+CRNM bleeding % ([3]; milvexian 200 mg once daily): 0.7%
- Major+CRNM bleeding RR vs Enox ([3]; milvexian 200 mg once daily): 0.40
- Major+CRNM bleeding n ([3]; milvexian 200 mg once daily): 1 n
- Minimal Bleeding % ([3]; milvexian 200 mg once daily): (5.4%)
- Minimal Bleeding RR vs Enox ([3]; milvexian 200 mg once daily): 2.01
- Minimal Bleeding n ([3]; milvexian 200 mg once daily): 8 n
- Any Bleeding % [3, 7]: (6.1%)
- Major+CRNM bleeding % [3, 7]: (0.7%)
- Any Bleeding % [3, 8]: 4.1%
- Any Bleeding n [3, 8]: 38 n
- Any bleeding RR (CI) vs enoxaparin [3, 8]: 0.99 (0.53-1.85)
- Clinically relevant non-major Bleeding % [3, 8]: 0.8%
- Clinically relevant non-major Bleeding RR (CI) vs enoxaparin [3, 8]: 0.55 (0.16-1.85)
- Clinically relevant non-major Bleeding n [3, 8]: 7 n
- Major Bleeding n [3, 8]: no major bleeds; also recorded: No CEC adjudicated major bleeding
- Major bleeding or CRNM Bleeding RR (CI) vs enoxaparin [3, 8]: 0.44 (0.14-1.35)
- Major+CRNM bleeding % [3, 8]: 0.8%
- Major+CRNM bleeding n [3, 8]: 7 n
- Minimal Bleeding % [3, 8]: 3.5%
- Minimal Bleeding RR (CI) vs enoxaparin [3, 8]: 1.26 (0.59-2.67)
- Minimal Bleeding n [3, 8]: 32 n
- Major Bleeding n ([3]; milvexian all regimens combined, listed as Milvexian): 0 n
- Any Bleeding % [3, 9]: 3.5%
- Any Bleeding n [3, 9]: 21 n
- Any bleeding RR (CI) vs enoxaparin [3, 9]: 0.86 (0.43-1.71)
- Clinically relevant non-major Bleeding % [3, 9]: 0.7%
- Clinically relevant non-major Bleeding RR (CI) vs enoxaparin [3, 9]: 0.49 (0.12-1.96)
- Clinically relevant non-major Bleeding n [3, 9]: 4 n
- Major Bleeding n [3, 9]: 0 n
- Major bleeding or CRNM Bleeding RR (CI) vs enoxaparin [3, 9]: 0.39 (0.11-1.44)
- Major+CRNM bleeding % [3, 9]: 0.7%
- Major+CRNM bleeding n [3, 9]: 4 n
- Minimal Bleeding % [3, 9]: 3.0%
- Minimal Bleeding RR (CI) vs enoxaparin [3, 9]: 1.10 (0.49-2.49)
- Minimal Bleeding n [3, 9]: 18 n
- prolongation of aPTT [4]: 1.5 fold
